Experimental data: paper PMC12892976, “Alkylation-based optimization of antifungal FPPS inhibitors yields a potent, broad-spectrum lipophilic zoledronate derivative” (mBio, 2025)
≈ marks a conversion by molar mass, not a printed value. Like-named read-outs stand apart in the source and are kept apart here.

Columns and labels:
Candida glabrata [1] = assay: MIC/MFC broth microdilution (CLSI); settings: Nakaseomyces glabratus, CBS138;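 also: broth microdilution following CLSI M27-Ed4, MFC taken as the lowest drug level yielding no growth once MIC wells were subcultured on SDA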
Experimental: (§1) Antifungal susceptibility was determined by broth microdilution according to the CLSI guidelines described in M27-Ed4 ([16]). […] MFC was determined by back-plating drug-treated cultures from MIC broths onto SDA plates. The MFC was defined as the lowest concentration from which no colonies could be cultured.

Aspergillus flavus [2] = assay: MIC/MFC broth microdilution (CLSI); settings: ATCC204304
Experimental: as §1

[3] = tested on: Cryptococcus deuterogattii; assay: MIC/MFC broth microdilution (CLSI); settings: Cryptococcus deuterogattii;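 also: broth microdilution per CLSI M27-Ed4. MFC is the lowest concentration yielding no colonies when MIC broths are subcultured onto SDA plates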
Experimental: as §1

eight fungal species [4] = assay: MIC/MFC summary across the eight fungal species of Table 1; type: cell-based
Experimental: The antifungal activity of these compounds was evaluated according to CLSI guidelines ([16]).

Aspergillus fumigatus [5] = assay: MIC/MFC broth microdilution (CLSI); settings: ATCC204305
Experimental: as §1

eight fungal species [6] = assay: checkerboard interaction with azoles, summary across the eight species; type: cell-based; settings: geometric mean MIC in combination with azoles
Text: Synergy between lipophilic FPPS inhibitors and azole antifungals was investigated by determining the fractional inhibitory concentration index (FICI) (Fig. 2; Table S1 Fig. S1) ([17]). […]. Derivatives PLA9 and 11, and PDA9, 11, and 12 antagonized azoles in C. albicans, C. neoformans, and C. deuterogattii, yet were largely synergistic in C. glabrata and S. cerevisiae. […].

Saccharomyces cerevisiae [7] = assay: MIC/MFC broth microdilution (CLSI); type: cell-based; settings: Saccharomyces cerevisiae S288c
Experimental: as §1

Cryptococcus neoformans [8] = assay: checkerboard drug interaction (FICI, MICc);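 as to all read-outs here: antifungal plus FPPS inhibitor pairs tested against Cryptococcus neoformans by simplified diagonal checkerboard screening, FICI computed under the Loewe additivity model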; type: cell-based; settings: C. neoformans; for INH FD (MIC-MICc fold decrease): fold decrease of inhibitor MIC
Experimental: (§2) Drug interactions between antifungals and FPPS inhibitors were investigated using a simplified checkerboard diagonal screening method ([45]). […] FICIs were determined according to the Loewe additivity model ([17]).

Cryptococcus neoformans [9] = assay: MIC/MFC broth microdilution (CLSI); settings: Cryptococcus neoformans;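 also: susceptibility testing followed the CLSI M27-Ed4 broth microdilution document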
Experimental: as §1

Aspergillus fumigatus [10] = assay: checkerboard drug interaction (FICI, MICc); type: cell-based;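 also: simplified diagonal checkerboard screen pairing antifungals with FPPS inhibitors against Aspergillus fumigatus, with FICI calculated under the Loewe additivity model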
Experimental: as §2

HEK-293T cells = assay: MTT reduction cytotoxicity assay; type: cell-based; settings: Homo sapiens, HEK-293T, 72 h, MTT, 72 h
Candida albicans [11] = assay: checkerboard drug interaction (FICI, MICc);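 as to all read-outs here: antifungal plus FPPS inhibitor combinations on Candida albicans tested by a simplified diagonal checkerboard screen, with FICI calculated under the Loewe additivity model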; type: cell-based; settings: C. albicans; for INH FD (MIC-MICc fold decrease): fold decrease of inhibitor MIC
Experimental: as §2

Trichophyton rubrum [12] = assay: checkerboard drug interaction (FICI, MICc);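 also: simplified diagonal checkerboard screen pairing azole antifungals with FPPS inhibitors, FICI calculated under the Loewe additivity model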; type: cell-based; settings: T. rubrum
Experimental: as §2

[13] = tested on: Cryptococcus deuterogattii; assay: checkerboard drug interaction (FICI, MICc);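 as to all read-outs here: simplified diagonal checkerboard screen pairing antifungal drugs with FPPS inhibitors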; type: cell-based; settings: C. deuterogattii; for INH FD (MIC-MICc fold decrease): fold decrease of inhibitor MIC
Experimental: as §2

Aspergillus flavus [14] = assay: checkerboard drug interaction (FICI, MICc);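 also: simplified diagonal checkerboard screen pairing azole antifungals with FPPS inhibitors, FICI calculated under the Loewe additivity model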; type: cell-based; design: INH MICc (KET:INH) / INH MICc (FLC:INH): unit not given beside the values; settings: A. flavus
Candida glabrata [15] = assay: checkerboard drug interaction (FICI, MICc);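 as to all read-outs here: simplified diagonal checkerboard screen pairing antifungals with FPPS inhibitors, FICI calculated under the Loewe additivity model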; type: cell-based; settings: C. glabrata; for INH FD (MIC-MICc fold decrease): fold decrease of inhibitor MIC
Experimental: as §2

Trichophyton rubrum [16] = assay: MIC/MFC broth microdilution (CLSI); settings: Trichophyton rubrum
Experimental: as §1

Saccharomyces cerevisiae [17] = assay: checkerboard drug interaction (FICI, MICc); type: cell-based; design: INH MICc / INH MICc (ITR:INH) / INH MICc (KET:INH) / INH MICc (FLC:INH): unit not given beside the values;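 also: simplified diagonal checkerboard screen pairing antifungals with FPPS inhibitors, FICI calculated under the Loewe additivity model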
Candida albicans [18] = assay: MIC/MFC broth microdilution (CLSI); type: cell-based; settings: Candida albicans SC5314
Experimental: as §1

[19] = FLC:INH combination, MIC of the inhibitor in combination with FLC
[20] = FLC:INH combination, fold decrease of FLC MIC
[21] = ITR:INH combination, MIC of the inhibitor in combination with ITR
[22] = ITR:INH combination, fold decrease of ITR MIC
[23] = KET:INH combination, MIC of the inhibitor in combination with KET
[24] = KET:INH combination, fold decrease of KET MIC
[25] = Fractional Inhibitory Concentration Index, fluconazole + inhibitor
[26] = Fractional Inhibitory Concentration Index, itraconazole + inhibitor
[27] = Fractional Inhibitory Concentration Index, ketoconazole + inhibitor
[28] = MIC of the inhibitor in combination with fluconazole
[29] = MIC of the inhibitor in combination with itraconazole
[30] = MIC of the inhibitor in combination with ketoconazole
[31] = MIC-MICc fold decrease of fluconazole, negative = increase
[32] = MIC-MICc fold decrease of itraconazole, negative = increase
[33] = MIC-MICc fold decrease of ketoconazole, negative = increase
[34] = MIC-MICc fold decrease of the inhibitor, with fluconazole
[35] = MIC-MICc fold decrease of the inhibitor, with itraconazole
[36] = MIC-MICc fold decrease of the inhibitor, with ketoconazole

CCCCCCCCCCCCN1CCC[C@H]1C(=O)N[C@@H](CC(=O)OC)C(=O)OC [dmPLA12]
MFC (Candida glabrata [1]): > 128 µg/mL
MIC (Candida glabrata [1]): > 128 µg/mL
MFC (Aspergillus flavus [2]): > 128 µg/mL
MIC (Aspergillus flavus [2]): > 128 µg/mL
MFC [3]: 8 µg/mL (≈ 18.8 µM)
MIC [3]: 8 µg/mL (≈ 18.8 µM)
MFC (eight fungal species [4]; across eight species, read-out: Geometric mean MFC): 69.8 µg/mL (≈ 164 µM)
MIC (eight fungal species [4]; geometric mean across eight species, read-out: GM fungal MIC): 38.1 µg/mL (≈ 89.3 µM)
MIC (eight fungal species [4]; read-out: Geometric mean MIC): 38.1 µg/mL (≈ 89.3 µM)
MFC (Aspergillus fumigatus [5]): > 128 µg/mL
MIC (Aspergillus fumigatus [5]): 32 µg/mL (≈ 75 µM)
GM fungal MICc (eight fungal species [6]): 11.3
MFC (Saccharomyces cerevisiae [7]): 4 µg/mL (≈ 9.38 µM)
MIC (Saccharomyces cerevisiae [7]): 4 µg/mL (≈ 9.38 µM)
FICI (Cryptococcus neoformans [8]; FLC:INH combination): 3
INH MICc (Cryptococcus neoformans [8]; [19]): 32
FLC FD (MIC-MICc fold decrease) (Cryptococcus neoformans [8]; [20]): 1
INH FD (MIC-MICc fold decrease) (Cryptococcus neoformans [8]; FLC:INH combination): -2
FICI (Cryptococcus neoformans [8]; ITR:INH combination): 1.5
INH MICc (Cryptococcus neoformans [8]; [21]): 16
ITR FD (MIC-MICc fold decrease) (Cryptococcus neoformans [8]; [22]): 2
INH FD (MIC-MICc fold decrease) (Cryptococcus neoformans [8]; ITR:INH combination): 1
FICI (Cryptococcus neoformans [8]; KET:INH combination): 0.75
INH MICc (Cryptococcus neoformans [8]; [23]): 8
KET FD (MIC-MICc fold decrease) (Cryptococcus neoformans [8]; [24]): 4
INH FD (MIC-MICc fold decrease) (Cryptococcus neoformans [8]; KET:INH combination): 2
MFC (Cryptococcus neoformans [9]): 16 µg/mL (≈ 37.5 µM)
MIC (Cryptococcus neoformans [9]): 16 µg/mL (≈ 37.5 µM)
FICI (FLC:INH) (Aspergillus fumigatus [10]; [25]): 1.5
FICI (ITR:INH) (Aspergillus fumigatus [10]; [26]): 0.52
FICI (KET:INH) (Aspergillus fumigatus [10]; [27]): 1
INH MICc (FLC:INH) (Aspergillus fumigatus [10]; [28]): 128
INH MICc (ITR:INH) (Aspergillus fumigatus [10]; [29]): 2
INH MICc (KET:INH) (Aspergillus fumigatus [10]; [30]): 64
FLC FD (FLC:INH) (Aspergillus fumigatus [10]; [31]): 2
ITR FD (ITR:INH) (Aspergillus fumigatus [10]; [32]): 2
KET FD (KET:INH) (Aspergillus fumigatus [10]; [33]): 2
INH FD (FLC:INH) (Aspergillus fumigatus [10]; [34]): 1
INH FD (ITR:INH) (Aspergillus fumigatus [10]; [35]): 64
INH FD (KET:INH) (Aspergillus fumigatus [10]; [36]): 2
IC50 (HEK-293T cells; HEK-293T cells, read-out: IC50): 2.01 µg/mL (≈ 4.72 µM)
IC50 (HEK-293T cells; read-out: HEK IC50): 2.01 µg/mL (≈ 4.72 µM)
FICI (Candida albicans [11]; FLC:INH combination): 1.06
INH MICc (Candida albicans [11]; [19]): 8
FLC FD (MIC-MICc fold decrease) (Candida albicans [11]; [20]): 1
INH FD (MIC-MICc fold decrease) (Candida albicans [11]; FLC:INH combination): 16
FICI (Candida albicans [11]; ITR:INH combination): ≥4
INH MICc (Candida albicans [11]; [21]): 32
ITR FD (MIC-MICc fold decrease) (Candida albicans [11]; [22]): -4
INH FD (MIC-MICc fold decrease) (Candida albicans [11]; ITR:INH combination): 4
FICI (Candida albicans [11]; KET:INH combination): 2.13
INH MICc (Candida albicans [11]; [23]): 16
KET FD (MIC-MICc fold decrease) (Candida albicans [11]; [24]): -2
INH FD (MIC-MICc fold decrease) (Candida albicans [11]; KET:INH combination): 8
FICI (FLC:INH) (Trichophyton rubrum [12]; [25]): 1.13
FICI (ITR:INH) (Trichophyton rubrum [12]; [26]): 1.06
FICI (KET:INH) (Trichophyton rubrum [12]; [27]): 1.13
INH MICc (FLC:INH) (Trichophyton rubrum [12]; [28]): 16
INH MICc (ITR:INH) (Trichophyton rubrum [12]; [29]): 16
INH MICc (KET:INH) (Trichophyton rubrum [12]; [30]): 16
FLC FD (FLC:INH) (Trichophyton rubrum [12]; [31]): 8
ITR FD (ITR:INH) (Trichophyton rubrum [12]; [32]): 16
KET FD (KET:INH) (Trichophyton rubrum [12]; [33]): 8
INH FD (FLC:INH) (Trichophyton rubrum [12]; [34]): 1
INH FD (ITR:INH) (Trichophyton rubrum [12]; [35]): 1
INH FD (KET:INH) (Trichophyton rubrum [12]; [36]): 1
FICI ([13]; FLC:INH combination): 0.38
INH MICc [13, 19]: 16
FLC FD (MIC-MICc fold decrease) [13, 20]: 4
INH FD (MIC-MICc fold decrease) ([13]; FLC:INH combination): 8
FICI ([13]; ITR:INH combination): 0.63
INH MICc [13, 21]: 16
ITR FD (MIC-MICc fold decrease) [13, 22]: 2
INH FD (MIC-MICc fold decrease) ([13]; ITR:INH combination): 8
FICI ([13]; KET:INH combination): 0.19
INH MICc [13, 23]: 16
KET FD (MIC-MICc fold decrease) [13, 24]: 16
INH FD (MIC-MICc fold decrease) ([13]; KET:INH combination): 8
FICI (FLC:INH) (Aspergillus flavus [14]; [25]): 1.5
FICI (ITR:INH) (Aspergillus flavus [14]; [26]): 0.5
FICI (KET:INH) (Aspergillus flavus [14]; [27]): 0.52
INH MICc (FLC:INH) (Aspergillus flavus [14]; [28]): 128
INH MICc (ITR:INH) (Aspergillus flavus [14]; [29]): 64
INH MICc (KET:INH) (Aspergillus flavus [14]; [30]): 4
FLC FD (FLC:INH) (Aspergillus flavus [14]; [31]): 1
ITR FD (ITR:INH) (Aspergillus flavus [14]; [32]): 4
KET FD (KET:INH) (Aspergillus flavus [14]; [33]): 2
INH FD (FLC:INH) (Aspergillus flavus [14]; [34]): 2
INH FD (ITR:INH) (Aspergillus flavus [14]; [35]): 4
INH FD (KET:INH) (Aspergillus flavus [14]; [36]): 64
FICI (Candida glabrata [15]; FLC:INH combination): 1
INH MICc (Candida glabrata [15]; [19]): 8
FLC FD (MIC-MICc fold decrease) (Candida glabrata [15]; [20]): 2
INH FD (MIC-MICc fold decrease) (Candida glabrata [15]; FLC:INH combination): 2
FICI (Candida glabrata [15]; ITR:INH combination): 0.38
INH MICc (Candida glabrata [15]; [21]): 2
ITR FD (MIC-MICc fold decrease) (Candida glabrata [15]; [22]): 4
INH FD (MIC-MICc fold decrease) (Candida glabrata [15]; ITR:INH combination): 8
FICI (Candida glabrata [15]; KET:INH combination): 0.75
INH MICc (Candida glabrata [15]; [23]): 4
KET FD (MIC-MICc fold decrease) (Candida glabrata [15]; [24]): 2
INH FD (MIC-MICc fold decrease) (Candida glabrata [15]; KET:INH combination): 4
MFC (Trichophyton rubrum [16]): > 128 µg/mL
MIC (Trichophyton rubrum [16]): 16 µg/mL (≈ 37.5 µM)
FICI (FLC:INH) (Saccharomyces cerevisiae [17]; [25]): 0.75
FICI (ITR:INH) (Saccharomyces cerevisiae [17]; [26]): 0.75
FICI (KET:INH) (Saccharomyces cerevisiae [17]; [27]): 0.38
INH MICc (FLC:INH) (Saccharomyces cerevisiae [17]; [28]): 2
INH MICc (ITR:INH) (Saccharomyces cerevisiae [17]; [29]): 1
INH MICc (KET:INH) (Saccharomyces cerevisiae [17]; [30]): 1
FLC FD (FLC:INH) (Saccharomyces cerevisiae [17]; [31]): 4
ITR FD (ITR:INH) (Saccharomyces cerevisiae [17]; [32]): 2
KET FD (KET:INH) (Saccharomyces cerevisiae [17]; [33]): 8
INH FD (FLC:INH) (Saccharomyces cerevisiae [17]; [34]): 2
INH FD (ITR:INH) (Saccharomyces cerevisiae [17]; [35]): 4
INH FD (KET:INH) (Saccharomyces cerevisiae [17]; [36]): 4
MFC (Candida albicans [18]): > 128 µg/mL
MIC (Candida albicans [18]): > 128 µg/mL
